Measurements: patent US9910044B2, “Methods for identifying arthropod repellents based on modulation of specific ionotropic receptors, and compounds and compositions identified by such methods” (The Regents of the University of California, priority 2013, dated 2018)
Read-outs that look alike come from different tables or passages of the source.

Assays:
[1] = target: human acetylcholinesterase (Homo sapiens, UniProt P22303); details: Corbel et al., BMC Biol, 7, 2009; cited from earlier work
Drosophila [2] = type: in vivo, Drosophila melanogaster
Drosophila [3] = assay: Drosophila olfactory avoidance assay, 2-choice trap; type: in vivo, Drosophila melanogaster
Protocol: For each trial, three- to six-day old flies (10 males and 10 females) were starved for 18 hours. Flies were transferred to a cylindrical 38.1 mm D×84.1 mm H chamber containing two traps each fashioned from an upturned 1.5 ml microcentrifuge tube with 2 mm removed from the tapered end. A pipette tip (1000 μl), was cut 2.5 cm from narrow end and 0.5 cm from top and inserted into the bottom of the inverted microcentrifuge tube. A 15 mm×16 mm #1 Whatmann filter paper was inserted in between the pipette tip and tip of microcentrifuge tube in a manner that entering flies cannot make physical contact with it. With reference to FIG. 2A, for the 1-choice test, a 50 μl sample of test odorant (50% DEET in DMSO) was applied to filter paper and 125 μl of 10% apple cider vinegar (ACV) is applied to the upturned lid of the microcentrifuge tube as attractant. With reference again to FIG. 2A, for the 2-choice test, two 10% ACV lured traps were placed in the cylinder, one with DMSO as the solvent (right) and another with DEET (left).

[4] = tested on: mammalian cation channels; details: cited from earlier work

Sequence of human acetylcholinesterase (P22303 32-614): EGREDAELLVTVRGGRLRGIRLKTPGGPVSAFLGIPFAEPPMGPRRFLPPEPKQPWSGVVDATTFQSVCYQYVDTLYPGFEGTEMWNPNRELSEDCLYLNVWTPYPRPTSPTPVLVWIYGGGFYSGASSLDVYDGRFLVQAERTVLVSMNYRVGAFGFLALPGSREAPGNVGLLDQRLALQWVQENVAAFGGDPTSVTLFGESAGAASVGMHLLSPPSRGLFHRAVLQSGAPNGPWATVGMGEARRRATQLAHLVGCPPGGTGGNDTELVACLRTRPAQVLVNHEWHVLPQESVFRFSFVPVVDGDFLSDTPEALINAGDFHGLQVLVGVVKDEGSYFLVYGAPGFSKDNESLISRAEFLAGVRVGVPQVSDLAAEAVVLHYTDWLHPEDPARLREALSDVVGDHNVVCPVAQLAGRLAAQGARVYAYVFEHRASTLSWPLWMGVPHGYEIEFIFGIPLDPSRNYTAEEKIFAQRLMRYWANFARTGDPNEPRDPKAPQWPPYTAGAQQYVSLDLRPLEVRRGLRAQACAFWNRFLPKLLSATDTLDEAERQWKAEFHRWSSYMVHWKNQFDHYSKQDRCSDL

What does the source list for `CCN(CC)C(=O)c1cccc(C)c1` [DEET, N,N-Diethyl-m-toluamide]?
inhibition of human acetylcholinesterase [1]: inhibit; avoidance of DEET-treated trap (Drosophila [2]; Ir25a neuron-TNTG flies (Ir25a-Ga14/UAS-TNTG), 10% ACV lure): substantially decreased; avoidance of DEET-treated trap (Drosophila [2]; Ir40a neuron-TNTG flies (Ir40a-Ga14/UAS-TNTG), versus controls, 10% ACV lure): substantially decreased; avoidance of DEET-treated trap (Drosophila [2]; control flies Ir25a-Ga14/UAS-IMPTV, 10% ACV lure): observed to avoid DEET; avoidance of DEET-treated trap (Drosophila [2]; control flies Ir40a-G4/+ and UAS-TNTG/+, 10% ACV lure): observed to avoid DEET; avoidance of DEET-treated trap (Drosophila [2]; in vivo): observed to avoid DEET; olfactory avoidance to DEET (Drosophila [2]; in vivo): nearly abolished; avoidance response to volatile DEET (Drosophila [3]; Ir40a neuron-silenced flies (Ir40a-promoter-Ga14, UAS-kir), 10% ACV lure): avoidance was observed to be lost; DEET avoidance (Drosophila [3]; Ir40a-RNAi flies (Ir40a-G4 with UAS-Ir40a-RNAi) compared to control flies, 10% ACV lure): loss of DEET avoidance; olfactory DEET avoidance (Drosophila [3]; Ir93a-/- and Ir25a receptor mutant flies, FIG. 6B): found to be involved in olfactory DEET avoidance; olfactory avoidance to DEET (Drosophila [3]; two DGRP lines with mutations in Ir40a (RAL-158, RAL-272), DEET 50% in DMSO, 10% ACV lure): nearly abolished; avoidance response to volatile DEET (Drosophila [3]; two control lines of the Ir40a-promoter-Ga14/UAS-kir experiment, 10% ACV lure): robust and reproducible avoidance response; avoidance response to volatile DEET (Drosophila [3]; wild-type Canton-S, DEET 50% in DMSO, 10% ACV lure): robust and reproducible avoidance response; inhibition of mammalian cation channels [4]: inhibit
